Source: patent US20240293551A1, “USE OF ST-TYPE LIPID COMPOUNDS IN PREPARATION OF NUCLEIC ACID DELIVERY REAGENT AND RELATED PRODUCT” (INSTITUTE OF BASIC MEDICAL SCIENCES CHINESE ACADEMY OF …, priority 2021, published 2024)

System: PGY-sRNA-26
Experiment: In vivo delivery study of lipid-nucleic acid mixture (oral gavage, RT-qPCR of PGY-sRNA-26 in tissues)
Parameters: species or system mouse
Details: for delivery efficacy over each tissue and blood tested (broad-spectrum delivery): all tissues and blood tested; for oral delivery of single-stranded sRNA nucleic acids into mouse intestinal tissue: intestine
How it was run: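 C57BL/6 male mice (~6 weeks, 20-24 g), fasted 12 h, were gavaged with 10 nmol 3′-methylated PGY-sRNA-26 mixed with 100 μg lipid (heated 90° C. 15 min), versus saline or free sRNA (n=4 each). After 12 h, blood and tissues were Trizol-extracted; sRNA quantified by stem-loop RT-qPCR relative to U6.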

[1] = C57BL/6 mice, gavage, 100 μg lipid: 10 nmol PGY-sRNA-26, 12 hours
[2] = C57BL/6 mice, gavage, 100 μg lipid: 10 nmol PGY-sRNA-26, 12 hours, blood
[3] = C57BL/6 mice, gavage, 100 μg lipid: 10 nmol PGY-sRNA-26, 12 hours, femur

Row | Compound | delivery efficacy over each tissue and blood tested (broad-spectrum delivery) [1] | oral delivery of single-stranded sRNA nucleic acids into mouse blood [2] | oral delivery of single-stranded sRNA nucleic acids into mouse femur [3] | oral delivery of single-stranded sRNA nucleic acids into mouse heart tissue [1] | oral delivery of single-stranded sRNA nucleic acids into mouse intestinal tissue [1] | oral delivery of single-stranded sRNA nucleic acids into mouse kidney tissue [1] | oral delivery of single-stranded sRNA nucleic acids into mouse liver tissue [1] | oral delivery of single-stranded sRNA nucleic acids into mouse lung tissue [1] | oral delivery of single-stranded sRNA nucleic acids into mouse spleen tissue [1] | oral delivery of single-stranded sRNA nucleic acids into mouse stomach tissue [1] | oral delivery of single-stranded sRNA nucleic acids into mouse blood (mouse, in vivo, po) | oral delivery of single-stranded sRNA nucleic acids into mouse femur (mouse, in vivo, po) | oral delivery of single-stranded sRNA nucleic acids into mouse brain tissue [1]
1 | C[C@]1(O)CC[C@H]2[C@@H]3CCC4=CC(=O)CC[C@]4(C)[C@@]3(F)[C@@H](O)C[C@@]21C [Lipid 532] | exhibited the best delivery efficacy | can effectively orally deliver | can effectively orally deliver | can effectively orally deliver | can effectively orally deliver | can effectively orally deliver | can effectively orally deliver | can effectively orally deliver | can effectively orally deliver | can effectively orally deliver | – | – | –
2 | C[C@]12CC[C@H]3[C@@H](CCC4=CC(=O)CC[C@@]43C)[C@@H]1CC[C@@H]2O [Lipid 579] | – | – | – | – | – | – | – | – | – | – | can effectively orally deliver | can effectively orally deliver | –
3 | CCC(=O)O[C@H]1CC[C@H]2[C@@H]3CCC4=CC(=O)CC[C@]4(C)[C@H]3CC[C@]12C [Lipid 568] | exhibited the best delivery efficacy | can effectively orally deliver | can effectively orally deliver | can effectively orally deliver | can effectively orally deliver | can effectively orally deliver | can effectively orally deliver | can effectively orally deliver | can effectively orally deliver | can effectively orally deliver | – | – | can effectively orally deliver
4 | CC(C)CCC[C@@H](C)[C@H]1CC[C@H]2[C@@H]3C[C@@H](O)[C@@]4(O)C[C@@H](O)CC[C@]4(C)[C@H]3CC[C@]12C [Lipid 551, Cholestan-3,5,6-triol (3S,5R,6R,8S,9S,10R,13R,14S,17R)-10,13-dimethyl-17-[(2R)-6-methylheptan-2-yl]-1,2,3,4,6,7,8,9,11,12,14,15,16,17-tetradecahydrocyclopenta[a]phenanthrene-3,5,6-triol] | exhibited the best delivery efficacy | can effectively orally deliver | can effectively orally deliver | can effectively orally deliver | can effectively orally deliver | can effectively orally deliver | can effectively orally deliver | can effectively orally deliver | can effectively orally deliver | can effectively orally deliver | – | – | can effectively orally deliver
5 | C[C@H](CCC(=O)NCC(=O)O)[C@H]1CC[C@H]2[C@@H]3CC[C@@H]4C[C@H](O)CC[C@]4(C)[C@H]3C[C@H](O)[C@]12C [Lipid 552] | exhibited the best delivery efficacy | can effectively orally deliver | can effectively orally deliver | can effectively orally deliver | can effectively orally deliver | can effectively orally deliver | can effectively orally deliver | can effectively orally deliver | can effectively orally deliver | can effectively orally deliver | – | – | can effectively orally deliver
6 | CCCCCCCCCCCCCCCCC(=O)O[C@H]1CC[C@@]2(C)C(=CC[C@H]3[C@@H]4CC[C@H]([C@H](C)CCCC(C)C)[C@@]4(C)CC[C@@H]32)C1 [Lipid 565] | – | can effectively orally deliver | can effectively orally deliver | can effectively orally deliver | can effectively orally deliver | can effectively orally deliver | can effectively orally deliver | – | – | can effectively orally deliver | – | – | can effectively orally deliver
7 | CC(C)CC[C@@H](O)[C@](C)(O)[C@H]1CC[C@@]2(O)C3=CC(=O)[C@@H]4C[C@@H](O)[C@@H](O)C[C@]4(C)[C@H]3CC[C@]12C [Lipid 538] | exhibited the best delivery efficacy | can effectively orally deliver | can effectively orally deliver | can effectively orally deliver | can effectively orally deliver | can effectively orally deliver | can effectively orally deliver | can effectively orally deliver | can effectively orally deliver | can effectively orally deliver | – | – | can effectively orally deliver
8 | C[C@H](CCC(=O)O)[C@H]1CC[C@H]2[C@@H]3[C@@H](O)C[C@@H]4C[C@H](O)CC[C@]4(C)[C@H]3CC[C@]12C [Lipid 592] | exhibited the best delivery efficacy | can effectively orally deliver | can effectively orally deliver | can effectively orally deliver | can effectively orally deliver | can effectively orally deliver | can effectively orally deliver | can effectively orally deliver | can effectively orally deliver | can effectively orally deliver | – | – | can effectively orally deliver
